The source of these data is patent publication US9062033B2, “Chemical compounds” (Rottapharm Biotech S.r.l., priority 2011, dated 2015).

Each structure is given as a SMILES string. Read-outs that look alike come from different tables or passages of the source. A value given as a limit tells only on which side of the number the result lay.

The target in one test is T1, human OX2 receptors (Homo sapiens, UniProt O43614).
T1 construct: expressed in transfected cells; host or cells: HEK-293 cells
T1 sequence (O43614 1-444): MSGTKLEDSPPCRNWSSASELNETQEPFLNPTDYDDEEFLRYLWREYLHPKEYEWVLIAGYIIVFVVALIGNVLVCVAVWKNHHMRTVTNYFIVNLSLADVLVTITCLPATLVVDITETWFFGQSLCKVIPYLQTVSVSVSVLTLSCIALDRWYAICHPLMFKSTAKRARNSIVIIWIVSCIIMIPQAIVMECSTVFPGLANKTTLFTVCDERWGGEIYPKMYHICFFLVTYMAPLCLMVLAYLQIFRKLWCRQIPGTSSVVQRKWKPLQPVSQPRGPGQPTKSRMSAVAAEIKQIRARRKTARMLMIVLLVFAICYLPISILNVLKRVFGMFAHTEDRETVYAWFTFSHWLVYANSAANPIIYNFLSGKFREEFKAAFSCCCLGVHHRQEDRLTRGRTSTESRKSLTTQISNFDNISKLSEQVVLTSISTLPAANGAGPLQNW
The test can be described thus: Antagonistic activity against human OX2 receptor, [Ca2+]i fluorimetry (Fluo-4NW) in transfected HEK-293 cells activated with orexin-B. The class given is cell-based. As to the method: (§1) In a typical experiment, the antagonistic activity against human OX1 and OX2 receptors is determined by using CHO e HEK-293 cells transfected with human recombinant OX1 and OX2 receptors respectively, seeded at density of 2 and 3×10^4 cells/well respectively in a 96 fluorimetry well plate. Thus the plate was loaded with the calcium dye (Fluo-4NW/probenecid in HBSS, Hepes 20 mM, pH 7.4; Invitrogen) at 37° C. for 60 min. Afterward the temperature was equilibrated at 22° C. for 15 min and the [Ca2+]i measured directly on the plate by using a fluorescent plate reader (CellLux Perkin Elmer).
(§2) Invention compounds were dissolved in DMSO, diluted in HBSS (DMSO, 0.3% final) and added to the wells. After 5 min CHO cells were activated with orexin-A, 3 nM while HEK-293 cells were activated with orexin-B, 10 nM.
(§3) The compounds, dissolved in DMSO and diluted in the medium (DMSO, 0.3% final), have been analysed in the 1 nM-1 μM concentration range (every concentration in duplicate). The antagonistic activity has been expressed as pKb (co-logarithm of the apparent dissociation constant calculated by using the modified Cheng Prusoff equation).
(§4) The results are expressed as percent of control specific […] response ((measured specific response/control specific agonist response)×100) obtained in the presence of the test compounds.
(§5) The IC50 values (concentration causing a half-maximal inhibition of the control specific agonist response) were determinated by non-linear regression analysis of the concentration curves generated with mean replicate values using hill equation curve fitting. The IC50 values are obtained by the arithmetical mean of at least two experiments. Compounds of the following example tested according to this example gave pKbs as follows: […]

The next test has as its target T2, human OX1 receptors (Homo sapiens, UniProt O43613).
T2 construct: expressed in transfected cells; host or cells: CHO cells
T2 sequence (O43613 1-425): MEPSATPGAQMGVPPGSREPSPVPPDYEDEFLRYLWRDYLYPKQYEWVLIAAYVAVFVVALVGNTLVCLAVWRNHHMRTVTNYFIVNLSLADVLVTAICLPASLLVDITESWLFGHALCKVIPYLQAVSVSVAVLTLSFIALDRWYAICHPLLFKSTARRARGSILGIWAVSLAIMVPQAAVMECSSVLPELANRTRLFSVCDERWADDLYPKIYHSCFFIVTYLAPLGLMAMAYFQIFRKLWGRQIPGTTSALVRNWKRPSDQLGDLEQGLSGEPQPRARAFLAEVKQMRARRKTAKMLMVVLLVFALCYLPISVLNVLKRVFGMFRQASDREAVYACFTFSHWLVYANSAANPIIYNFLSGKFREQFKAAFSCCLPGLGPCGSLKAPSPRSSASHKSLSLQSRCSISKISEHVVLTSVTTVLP
The test can be described thus: Antagonistic activity against human OX1 receptor, [Ca2+]i fluorimetry (Fluo-4NW) in transfected CHO cells activated with orexin-A. The following applies: for Kb: CHO cells transfected with human recombinant OX1, orexin-A 3 nM, pKb = co-logarithm of apparent dissociation constant, modified Cheng Prusoff. The class given is cell-based. The method, then:
as §1, §2, §3, §4, §5

Setting [1] is: HEK-293 cells transfected with human recombinant OX2, orexin-B 10 nM, pKb = co-logarithm of apparent dissociation constant, modified Cheng Prusoff.
The mark [2] stands for this setting: comparison table with compound of WO2011006960.

As for `Cc1ccc(-c2ncccn2)c(C(=O)N2CC3(CC3)C[C@H]2CNc2ncc(C(F)(F)F)cc2F)n1` [Compound 3d, (S)-(6-(((3-fluoro-5-(trifluoromethyl)pyridin-2-yl)amino)methyl)-5-azaspiro[2.4]heptan-5-yl)(6-methyl-3-(pyrimidin-2-yl)pyridin-2-yl)methanone], the Kb is 10 nM on human OX2 receptors (setting [1]) and 3.98 nM at human OX1 receptors.
Regarding `Cc1ccc(-c2ccccc2)c(C(=O)N2CC3(CC3)C[C@H]2CNc2ncc(C(F)(F)F)cc2F)n1` [Compound 3e, (S)-(6-(((3-fluoro-5-(trifluoromethyl)pyridin-2-yl)amino)methyl)-5-azaspiro[2.4]heptan-5-yl)(6-methyl-3-phenylpyridin-2-yl)methanone], the Kb at human OX2 receptors (setting [1]) is 7.94 nM; at human OX1 receptors it was 3.98 nM.
Regarding `Cc1ccc(OCc2ccc(F)cc2F)c(C(=O)N2CC3(CC3)C[C@H]2CNc2ccc(C(F)(F)F)cn2)n1` [Compound 3n, (S)-(3-((2,4-difluorobenzyl)oxy)-6-methylpyridin-2-yl)(6-(((5-(trifluoromethyl)pyridin-2-yl)amino)methyl)-5-azaspiro[2.4]heptan-5-yl)methanone], the Kb at human OX2 receptors (setting [1]) and at human OX1 receptors was 79.4 nM in each case.
With `Cc1nc(C(=O)N2CC3(CC3)C[C@H]2CNc2nc3ccc(Cl)cc3s2)c(-c2ccccc2)s1` [Compound 2i, (S)-(6-(((6-chlorobenzo[d]thiazol-2-yl)amino)methyl)-5-azaspiro[2.4]heptan-5-yl)(2-methyl-5-phenylthiazol-4-yl)methanone], the values for the Kb at human OX2 receptors (setting [1]) and at human OX1 receptors were 31.6 nM and 12.6 nM, respectively.
Consider `Cc1ccc(OCc2cccc(F)c2F)c(C(=O)N2CC3(CC3)C[C@H]2CNc2ccc(C(F)(F)F)cn2)n1` [Compound 3l, (S)-(3-((2,3-difluorobenzyl)oxy)-6-methylpyridin-2-yl)(6-(((5-(trifluoromethyl)pyridin-2-yl)amino)methyl)-5-azaspiro[2.4]heptan-5-yl)methanone], for which the figures for the Kb on human OX2 receptors (setting [1]) and at human OX1 receptors were 7.94 nM and 25.1 nM, respectively.
For `O=C(c1ncccc1-c1ccccc1)N1CC2(CC2)C[C@H]1CNc1ccc(C(F)(F)F)cn1` [Compound E5, (S)-(3-phenylpyridin-2-yl)(6-(((5-(trifluoromethyl)-pyridin-2-yl)amino)methyl)-5-azaspiro[2.4]heptan-5-yl)methanone], the Kb is 50.1 nM at human OX2 receptors (setting [1]) and 10 nM on human OX1 receptors.
On to `Cc1cnn(-c2ccc(C)nc2C(=O)N2CC3(CC3)C[C@H]2CNc2ccc(C(F)(F)F)cn2)c1` [Compound 3i, (S)-(6-methyl-3-(4-methyl-1H-pyrazol-1-yl)pyridin-2-yl)(6-(((5-(trifluoromethyl)pyridin-2-yl)amino)-methyl)-5-azaspiro[2.4]heptan-5-yl)methanone], for which the Kb at human OX2 receptors (setting [1]) was 5.01 nM; on human OX1 receptors it was 1.26 nM.
Regarding `Cc1nc(C(=O)N2CC3(CC3)C[C@H]2CNc2nccc3ccccc23)c(-c2ccccc2)s1` [Compound 2e, (S)-(6-((isoquinolin-1-ylamino)methyl)-5-azaspiro[2.4]heptan-5-yl)(2-methyl-5-phenylthiazol-4-yl)methanone], the Kb on human OX2 receptors (setting [1]) and on human OX1 receptors was 2.51 nM throughout.
Turning to `Cc1ccc(-c2cccnc2)c(C(=O)N2CC3(CC3)C[C@H]2CNc2ccc(C(F)(F)F)cn2)n1` [Compound E6, (S)-(6-methyl-[3,3′-bipyridin]-2-yl)(6-(((5-(trifluoromethyl)pyridin-2-yl)amino)methyl)-5-azaspiro[2.4]heptan-5-yl)methanone], the values for the Kb at human OX2 receptors (setting [1]) and on human OX1 receptors were 200 nM and 100 nM, respectively.
For `Cc1ccc(-c2ccc(C)nc2C(=O)N2CC3(CC3)C[C@H]2CNc2ccc(C(F)(F)F)cn2)c(F)c1` [Compound E4, (S)-(3-(2-fluoro-4-methylphenyl)-6-methylpyridin-2-yl)(6-(((5-(trifluoromethyl)pyridin-2-yl)amino)methyl)-5-azaspiro[2.4]heptan-5-yl)methanone], in that order: 31.6 nM and 39.8 nM.
On to `O=C(c1cc(Cl)ccc1-c1ncccn1)N1CC2(CC2)C[C@H]1CNc1nccc(C(F)(F)F)n1` [Compound 1q], for which the Kb was 6.31 nM at human OX2 receptors (setting [1]) and 39.8 nM at human OX1 receptors.
The corresponding values for `Cc1nc(C(=O)N2CC3(CC3)C[C@H]2CNc2nc3ccc(F)cc3s2)c(-c2ccccc2)s1` [Compound 2h, (S)-(6-(((6-fluorobenzo[d]thiazol-2-yl)amino)methyl)-5-azaspiro[2.4]heptan-5-yl)(2-methyl-5-phenylthiazol-4-yl)methanone] are 6.31 nM and 3.98 nM.
For `O=C(c1cc(Cl)ccc1-c1ncccn1)N1CC2(CC2)C[C@H]1CNc1ncc(C(F)(F)F)cn1` [Compound 1u, (S)-(5-chloro-2-(pyrimidin-2-yl)phenyl)(6-(((5-(trifluoromethyl)pyrimidin-2-yl)amino)methyl)-5-azaspiro[2.4]heptan-5-yl)methanone], in that order: 200 nM and 15.8 nM.
The corresponding values for `Cc1ccc(-c2ncccn2)c(C(=O)N2CC3(CC3)C[C@H]2CNc2nc3cc(Cl)ccc3o2)n1` [Compound E10, (S)-(6-(((5-chlorobenzo[d]oxazol-2-yl)amino)methyl)-5-azaspiro[2.4]heptan-5-yl)(6-methyl-3-(pyrimidin-2-yl)pyridin-2-yl)methanone] are 79.4 nM and 7.94 nM.
Consider `Cc1ccc(-c2ncccn2)c(C(=O)N2CC3(CC3)C[C@H]2CNc2ccc(C(F)(F)F)cn2)c1` [Compound 1o, (S)-(5-methyl-2-(pyrimidin-2-yl)phenyl)(6-(((5-(trifluoromethyl)pyridin-2-yl)amino)methyl)-5-azaspiro[2.4]heptan-5-yl)methanone], for which the Kb at human OX2 receptors (setting [1]) was 251 nM; on human OX1 receptors it was 2 nM. Besides, the “pKb OX2” value on human OX2 receptors (setting [2]) is 6.6. The “pKb OX1” value at human OX1 receptors (setting [2]) was determined as 8.7.
Take `Cc1ccc(-c2ncccn2)c(C(=O)N2CC3(CC3)C[C@H]2CNc2ncc(Cl)cc2F)n1` [Compound 3c, (S)-(6-(((5-chloro-3-fluoropyridin-2-yl)amino)methyl)-5-azaspiro[2.4]heptan-5-yl)(6-methyl-3-(pyrimidin-2-yl)pyridin-2-yl)methanone]: the Kb on human OX2 receptors (setting [1]) was 39.8 nM; at human OX1 receptors, 6.31 nM.
`O=C(c1cc(Cl)ccc1-c1ncccn1)N1CC2(CC2)C[C@H]1CNc1cc(Cl)c(C(F)(F)F)cn1` [Compound 1v, (S)-(5-chloro-2-(pyrimidin-2-yl)phenyl)(6-(((4-chloro-5-(trifluoromethyl)pyridin-2-yl)amino)methyl)-5-azaspiro[2.4]heptan-5-yl)methanone]: the Kb was 10 nM on human OX2 receptors (setting [1]) and 6.31 nM at human OX1 receptors.
For `Cc1nc(C(=O)N2CC3(CC3)C[C@H]2CNc2ccc(C(F)(F)F)cn2)c(-c2ccccc2)s1` [Compound 2d, (S)-(2-methyl-5-phenylthiazol-4-yl)(6-(((5-(trifluoromethyl)pyridin-2-yl)amino)methyl)-5-azaspiro[2.4]heptan-5-yl)methanone], in that order: 20 nM and 3.98 nM.
For `Cc1ccc(-c2ncccn2)c(C(=O)N2CC3(CC3)C[C@H]2CNc2ccc(Cl)cn2)c1` [Example 51 of WO2011006960, reference compound], the Kb on human OX2 receptors (comparison table with compound of WO2011006960, read-out: pKb OX2 (converted)) is over 10000 nM.
